Measured values: article PMC8406801, “Naringenin Inhibits Platelet Activation and Arterial Thrombosis Through Inhibition of Phosphoinositide 3-Kinase and Cyclic Nucleotide Signaling” (Frontiers in Pharmacology, 2021)
“And” between values parts separate entries of the source, which are not always exact repeats. Equal entries are not always repeated.

Assays:
[1] = test system: intracellular calcium in washed platelets; test: Calcium mobilization in ADP-induced platelets (Fluo 3-AM, flow cytometry); assay type: cell-based, rat; conditions: for Calcium mobilisation (%): ADP 10 μM, single replicates
Method: Calcium mobilization in ADP-induced platelets was measured using flow cytometry. Washed platelets were incubated with Fluo 3-AM (5 μM) at 37°C for 30 min and washed. The Fluo 3-loaded platelets were preincubated with vehicle or different concentrations of naringenin at 37°C for 5 min in the presence of 1 mM CaCl2 and then stimulated with ADP (10 μM) for 5 min. The fluorescence intensity was analyzed using an Accuri C6 flow cytometer.

[2] = test system: PRP (platelet-rich plasma); test: ADP (10 μmol/L)-induced aggregation of PRP in vitro; assay type: cell-based, rat; conditions: for Aggregation (%): raw data
Method: Washed rat platelets were prepared as described previously ([Gao et al., 2011]) with a minor modification. Briefly, rat blood was drawn from the abdominal aorta into the siliconized vacutainers containing 1:9 (v/v) 3.8% sodium citrate, supplemented with 100 ng/ml prostaglandin E1 (PGE1) and centrifuged at 300 × g for 6 min at room temperature. Platelet-rich plasma (PRP) was obtained, and after the addition of 100 ng/ml PGE1, platelets were pelleted at 900 × g for 10 min. Platelets were washed once in Tyrode’s buffer (12 mM NaHCO3, 138 mM NaCl, 5.5 mM glucose, 2.9 mM KCl, 2 mM MgCl2, 0.42 mM NaH2PO4, 10 mM HEPES, pH 7.4) containing 100 ng/ml PGE1, and finally resuspended in Tyrode’s buffer containing 0.02 U/mL apyrase to a final concentration of 4×10^8 cells/mL. Washed platelets were preincubated with vehicle (0.4% dimethyl sulfoxide) or various concentrations of naringenin in the presence of 2 mM CaCl2 for 5 min at 37°C, and then further stimulated by ADP (10 μM), thrombin (0.2 U/mL) or collagen (2 μg/ml). The maximum platelet aggregation rate was detected within 5 min with continuous stirring.
Platelet aggregation was induced by ADP using washed platelets and PRP. Washed platelets were preincubated with vehicle (containing 0.4% DMSO) or different doses (100, 200, 400, and 800 μM) of naringenin or naringin for 5 min before activation with ADP (10 μM) for 5 min. […] For example, naringenin, at doses of 100 and 800 μM, decreased ADP-induced platelet aggregation to 54.5 ± 6.2% and 6.3 ± 1.7%, respectively (n = 6; p < 0.001, control group platelet aggregation was taken as 100%) (Figure 1F). […] Because dietary flavonoids have been reported to bind plasma proteins and cause the lowering of inhibitory potency in PRP ([Wright et al., 2013]), the ability of naringenin and naringin on platelet function in PRP was investigated to compare their effects with washed platelets.
FIGURE 1 Effects of naringenin and naringin on platelet aggregation. Chemical structure of naringin (A) and naringenin (B). The effects of naringin (C) or naringenin (D) on PRP were measured following stimulation with 10 μmol/L ADP. Rat washed platelet aggregation performed with or without different concentrations of naringin (E) or naringenin (F) was recorded after stimulation with 10 μmol/L ADP. Similarly, Washed platelet aggregation performed with vehicle or various concentrations of naringenin was recorded after stimulation with 0.2 U/mL thrombin (G) or 2 μg/ml collagen (H). WP represents washed platelets. Data are expressed as means ± SD (n = 6), the level of aggregation obtained at 5 min with vehicle-treated samples (0 μM) was taken as 100%. *p < 0.05, **p < 0.01, ***p < 0.001 compared with the vehicle control group.

O=C1C[C@@H](c2ccc(O)cc2)Oc2cc(O)cc(O)c21 [Naringenin]
mobilization of intracellular calcium induced by ADP ([1]; 400 and 800 μM): significantly prevented | Calcium mobilisation (%) ([1]; 200 μM): 46.06% and 50.52% and 43.09% | Calcium mobilisation (%) ([1]; 400 μM): 35.32% and 30.53% and 43.33% | Calcium mobilisation (%) ([1]; 800 μM): 34.54% and 21.04% and 26.06% | decrease of aggregation in PRP ([2]; ADP-induced, 100 μM): 18% | Aggregation (%) ([2]; PRP, ADP 10 μmol/L, compound 100 μM, single replicates): 44.9% and 44.8% and 49.7% and 47.9% and 48.3% | Aggregation % of control ([2]; PRP, ADP 10 μmol/L, compound 100 μM, single replicates, 100 µM): 78.3 % of control and 86.8 % of control and 83.7 % of control and 79.5 % of control and 84.4 % of control | Aggregation (%) ([2]; PRP, ADP 10 μmol/L, compound 200 μM, single replicates): 42.5% and 44.3% and 48.9% and 47.2% and 39.7% | Aggregation % of control ([2]; PRP, ADP 10 μmol/L, compound 200 μM, single replicates, 200 µM): 77.4 % of control and 85.4 % of control and 82.4 % of control and 69.3 % of control and 74.1 % of control | Aggregation (%) ([2]; PRP, ADP 10 μmol/L, compound 400 μM, single replicates): 39.7% and 31.6% and 37.9% and 34.1% and 44.8% | Aggregation % of control ([2]; PRP, ADP 10 μmol/L, compound 400 μM, single replicates, 400 µM): 66.9 % of control and 69.3 % of control and 55.2 % of control and 66.2 % of control and 59.6 % of control and 78.3 % of control | Aggregation (%) ([2]; PRP, ADP 10 μmol/L, compound 800 μM, single replicates): 30.9% and 33.6% and 36.0% and 28.9% and 28.6% and 38.4% | Aggregation % of control ([2]; PRP, ADP 10 μmol/L, compound 800 μM, single replicates, 800 µM): 58.7 % of control and 62.9 % of control and 50.5 % of control and 50.0 % of control and 67.1 % of control | activity at 100 µM ([2]; Rattus norvegicus, PRP, ADP 10 μmol/L, compound 100 μM, single replicates, read-out: Aggregation % of control): 78.4% | activity at 200 µM ([2]; Rattus norvegicus, PRP, ADP 10 μmol/L, compound 200 μM, single replicates, read-out: Aggregation % of control): 74.2% | activity at 800 µM ([2]; Rattus norvegicus, PRP, ADP 10 μmol/L, compound 800 μM, single replicates, read-out: Aggregation % of control): 54%
